{"source": "patent US20190060249A1", "about": "(priority 2017, published 2019)", "key": {"[1]": {"tested_on": "SAS (human papillomavirus [HPV]-negative) head and neck squamous cell carcinoma cell line", "test": "Xenograft study, SAS", "type": "in vivo, SCID mice", "settings": "Alda-341 from one week ahead of irradiation, during and post; 30 Gy over 5 fractions", "method": "Xenograft study: Six-week old SCID mice were purchased from the Jackson laboratory and five mice per group were used. SCC90 and SAS cells (2×10^6 cells/injection) were implanted into both flanks of each mouse. Alda-341 treated one week ahead of irradiation and continued during and post radiation. Total 30 Gy over 5 fractions in a week was delivered to the tumor with the rest of the body shielded. Tumor size was measured every 1-2 days. Tumor volume was calculated by the formula (π×length×width×height)/6."}, "ALDH2": {"biological_target": "T1, ALDH2 (Homo sapiens, UniProt P05091)", "T1 sequence (P05091 18-517)": "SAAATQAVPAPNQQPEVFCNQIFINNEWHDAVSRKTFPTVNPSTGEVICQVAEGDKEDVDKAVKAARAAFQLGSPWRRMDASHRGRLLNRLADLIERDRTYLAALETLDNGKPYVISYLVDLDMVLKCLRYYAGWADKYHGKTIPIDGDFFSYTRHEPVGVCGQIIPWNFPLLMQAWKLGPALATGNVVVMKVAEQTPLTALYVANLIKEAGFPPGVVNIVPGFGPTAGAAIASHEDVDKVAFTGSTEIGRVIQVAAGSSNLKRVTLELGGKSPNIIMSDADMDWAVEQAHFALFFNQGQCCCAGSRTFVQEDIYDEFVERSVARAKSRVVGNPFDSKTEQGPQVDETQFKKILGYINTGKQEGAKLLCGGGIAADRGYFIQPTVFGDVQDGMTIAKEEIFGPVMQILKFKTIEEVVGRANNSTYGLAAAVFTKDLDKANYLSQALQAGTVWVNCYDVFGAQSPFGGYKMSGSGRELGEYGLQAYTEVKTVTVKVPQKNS", "test": "ALDH enzymatic assay, recombinant ALDH2", "type": "biochemical", "settings": "5 μg/ml recombinant enzyme, 10 mM acetaldehyde, 20 μM Alda-341", "method": "(§1) ALDH enzymatic assay: ALDH1A1, ALDH1A2, 2, 3A1, 3A2, 4A1, 5A1, 7A1 were measured as previously described using 5 μg/ml of recombinant protein (Chen, C. H., Cruz, L. A., and Mochly-Rosen, D. (2015) Pharmacological recruitment of aldehyde dehydrogenase 3A1 (ALDH3A1) to assist ALDH2 in acetaldehyde and ethanol metabolism in vivo. Proceedings of the National Academy of Sciences of the United States of America 112, 3074-3079). […] Assays were conducted in 50 mM NaPPi buffer (pH 7.4) in the presence of 2.5 mM NAD^+ and 10 mM substrate and measured in triplicate at 25° C. Dose response curve fits and EC50's were calculated using GraphPad Prism 7 software."}, "Human salivary cells": {"tested_on": "Human salivary cells", "test": "Salisphere formation assay, human", "type": "cell-based", "settings": "25 μM Alda-341; cells from normal salivary gland tissue of head and neck cancer patients", "method": "Salisphere formation assay: Cells isolated from mouse submandibular glands (SMG) were FACS sorted using cell surface markers EpCAM and CD24 as previously described and seeded on matrigel (BD Biosciences, BD356235). Cells were grown in DMEM/F12+GlutaMax (Gibco, 10565-018) media containing 10% FBS, 1× anti-anti, 1% N2 supplement (Gibco), 20 ng/mL […] (Sigma-Aldrich), 20 ng/mL fibroblast growth factor-2 (Sigma-Aldrich), 10 μg/mL insulin (Sigma-Aldrich), 1 μM dexamethasone (Sigma-Aldrich), 10 μM […] (Stem Cell Technologies). Spheres were passaged every 7 days by dissociating into single cells by incubating in 1 mg/mL dispase (BD Biosciences) for 20 minutes and 0.25% trypsin-EDTA for 20 minutes. Spheres were grown for 7 days and imaged with a BZ-X710 Keyence microscope using the z-stack function. Images were stitched together into a single image and analyzed using ImageJ (NIH) to quantify sphere number and area. Experiments were repeated at least 3 independent times.\nSphere number per well quantified by Image J (NIH). 4 replicates per group.\nSalivary gland tissue dissociation: Mouse and human salivary gland cells were isolated as previously described in, Szlavik, V., Szabo, B., Vicsek, T., Barabas, J., Bogdan, S., Gresz, V., Varga, G., O'Connell, B., and Vag, J. (2008) Differentiation of primary human submandibular gland cells cultured on basement membrane extract. […]"}, "[2]": {"tested_on": "intact SMG from CD-1 E13.5 embryos", "test": "DarkZone dye aldehyde assay in intact E13.5 embryonic SMG", "type": "cell-based, mouse", "settings": "25 μM Alda-341 for 24 h, 4 Gy, 3 h after radiation", "method": "DarkZone dye aldehyde assay in intact E13.5 embryonic SMG: E13.5 embryonic whole SMG were manually dissected and cultured in DMEM/F12 with 50 ug/mL transferrin and 50 ug/mL Vitamin C for 24 h. Glands were irradiated with 4 or 8 Gy and incubated with 20 uM DarkZone fluorescein aldehyde dye and 10 mM 2,4-Dimethoxyaniline catalyst (TCI America) for 1 h (Yuen, L. H., Saxena, N. S., Park, H. S., Weinberg, K., and Kool, E. T. (2016) Dark Hydrazone Fluorescence Labeling Agents Enable Imaging of Cellular Aldehydic Load. ACS chemical biology 11, 2312-2319). Glands were imaged 3 h after radiation using a Keyence BZ-X710 microscope GFP filter at 10× magnification. Average fluorescence intensity was quantified using Image J (NIH).\nAfter 24 h, the glands were irradiated with 4 Gy and incubated SMG with DarkZone dye to measure intracellular aldehydes. After 3 h, the aldehydic load in the irradiated vehicle control-treated SMG was more than 4-fold greater than the non-irradiated vehicle control-treated SMG."}, "ALDH3A2": {"biological_target": "ALDH3A2 (Homo sapiens, UniProt P51648)", "sequence (P51648 whole entry)": "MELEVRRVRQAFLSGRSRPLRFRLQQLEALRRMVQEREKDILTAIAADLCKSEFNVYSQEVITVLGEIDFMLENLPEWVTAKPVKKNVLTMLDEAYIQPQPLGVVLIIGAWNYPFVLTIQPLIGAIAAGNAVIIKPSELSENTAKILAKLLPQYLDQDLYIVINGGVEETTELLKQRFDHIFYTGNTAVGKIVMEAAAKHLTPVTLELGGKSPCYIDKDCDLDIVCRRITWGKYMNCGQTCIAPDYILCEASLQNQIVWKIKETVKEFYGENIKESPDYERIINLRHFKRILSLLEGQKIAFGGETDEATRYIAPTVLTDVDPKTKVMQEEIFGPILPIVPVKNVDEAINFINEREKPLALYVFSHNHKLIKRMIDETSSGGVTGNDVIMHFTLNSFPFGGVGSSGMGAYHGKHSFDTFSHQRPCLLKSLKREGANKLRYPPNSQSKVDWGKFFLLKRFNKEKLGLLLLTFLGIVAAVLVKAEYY", "test": "ALDH enzymatic assay, recombinant ALDH3A2", "type": "biochemical", "settings": "5 μg/ml recombinant enzyme, 10 mM acetaldehyde, 20 μM Alda-341", "method": "as §1"}, "[3]": {"tested_on": "mouse primary salivary sphere lysate", "test": "ALDH fluorescence-coupled enzymatic assay in salivary sphere lysate", "type": "biochemical", "settings": "10 mM acetaldehyde, 100 μM Alda-341", "method": "Assay conditions were modified from the original enzyme assay protocol above using 50 mM NaPPi buffer (pH 7.4), 2.5 mM NAD^+, 10 mM acetaldehyde or all-trans-retinal substrate with the addition of 1 U/mL diaphorase and 0.1 mM resazurin for the secondary reaction. Measurements were collected in triplicate at 25° C.\nAll measurements were collected in triplicate, and error bars represent SEM. *=p<0.05; ***=p<0.001 (Student's t-test)."}}}
{"smiles": "C=C(C)[C@H]1CC=C(C)CC1", "note": "[Alda-341, D-limonene]", "values": [{"measurement": "tumor growth and protection of tumors from radiation, SAS xenograft", "setting": "[1]", "value": "did not increase tumor growth or protect tumors from radiation"}, {"measurement": "catalytic activity of ALDH2", "setting": "ALDH2", "value": "did not increase"}, {"measurement": "more salispheres than untreated cells", "setting": "Human salivary cells", "value": "about 30%"}, {"measurement": "aldehydic load after radiation", "setting": "[2]", "value": "reduced the aldehydic load to almost non-irradiated levels"}, {"measurement": "catalytic activity of ALDH3A2", "setting": "ALDH3A2", "value": "did not increase"}, {"measurement": "enzymatic activity of the lysate from Aldh3a1(−/−) mice", "setting": "[3]; 400 μg/mL Aldh3a1(−/−) salivary sphere lysate", "value": "did not increase"}, {"measurement": "increase of enzymatic activity of WT lysate", "setting": "[3]; 400 μg/mL C57BL/6 WT salivary sphere lysate", "value": "approximately 30%"}]}
